According to the supplement of paper PMC10307832:

What was measured:
Experiment in all cases: relative viability (nuclei count vs DMSO), 5 days (fraction); higher = more cells survive
[1] = compound: CC[C@H](Nc1ncnc2[nH]cnc12)c1nc2cccc(F)c2c(=O)n1-c1ccccc1 [Idelalisib] + COc1cc2c(Oc3ccc(NC(=O)C4(C(=O)Nc5ccc(F)cc5)CC4)cc3F)ccnc2cc1OCCCN1CCOCC1 [Foretinib] (partner 0.25 µM)
Procedure, shortened: (§1)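 Relative viability was taken as the ratio of nuclei in treated wells to nuclei in vehicle wells. Lung cancer cell lines in 1536-well plates received compounds by pin tool one day after seeding, either one drug alone or a fixed anchor-drug dose plus five library-drug doses (not always all listed) in √10 steps. Nuclei were counted on 4× images after 5 days of treatment, and values are medians of duplicate plates.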

[2] = compound: CC[C@H](Nc1ncnc2[nH]cnc12)c1nc2cccc(F)c2c(=O)n1-c1ccccc1 [Idelalisib] + N=C(N)NC(=N)NCCc1ccccc1 [Phenformin] (partner 250 µM)
Procedure, shortened: as §1

[3] = compound: Nc1nc2[nH]cc(CCc3ccc(C(=O)N[C@@H](CCC(=O)O)C(=O)O)cc3)c2c(=O)[nH]1 [Pemetrexed] + Cc1nc(Nc2ncc(C(=O)Nc3c(C)cccc3Cl)s2)cc(N2CCN(CCO)CC2)n1 [Dasatinib] (partner 0.075 µM)
Procedure, shortened: as §1

[4] = compound: CC[C@H](Nc1ncnc2[nH]cnc12)c1nc2cccc(F)c2c(=O)n1-c1ccccc1 [Idelalisib]
Procedure, shortened: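 Lung cancer cell lines received five library-drug doses (not always all listed) spaced by √10, pinned on vehicle-anchored 1536-well plates after an overnight stay at 37 °C. Five days later, with no medium change, nuclei were Hoechst-stained, imaged at 4× and counted with MetaXpress. Viability is treated-well nuclei relative to vehicle-well nuclei, as a median across plates. Passing plates had control CV below 25% and at least one doubling.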

Row | Cell Line | relative viability ([1]; first compound 0.04 µM) | relative viability ([1]; first compound 0.1265 µM) | relative viability ([1]; first compound 0.4 µM) | relative viability ([1]; first compound 1.265 µM) | relative viability ([1]; first compound 4 µM) | relative viability ([2]; first compound 0.04 µM) | relative viability ([2]; first compound 0.1265 µM) | relative viability ([2]; first compound 0.4 µM) | relative viability ([2]; first compound 1.265 µM) | relative viability ([2]; first compound 4 µM) | relative viability ([3]; first compound 0.002 µM) | relative viability ([3]; first compound 0.006325 µM) | relative viability ([3]; first compound 0.02 µM) | relative viability ([3]; first compound 0.06325 µM) | relative viability ([3]; first compound 0.2 µM) | relative viability ([4]; 0.04 µM) | relative viability ([4]; 0.1265 µM) | relative viability ([4]; 0.4 µM) | relative viability ([4]; 1.265 µM) | relative viability ([4]; 4 µM)
1 | NCI-H2023 | 0.92 | 0.859 | 0.617 | 0.739 | 0.637 | 0.407 | 0.391 | 0.363 | 0.361 | 0.351 | 0.506 | 0.505 | 0.6 | 0.433 | 0.195 | 1.05 | 0.973 | 0.792 | 0.818 | 0.968
2 | NCI-H2085 | 0.971 | 0.913 | 0.688 | 0.777 | 0.556 | 0.788 | 0.833 | 0.558 | 0.735 | 0.471 | 0.23 | 0.228 | 0.291 | 0.23 | 0.242 | 1.05 | 0.995 | 0.91 | 0.955 | 0.729
3 | NCI-H2087 | 1.28 | 1.04 | 0.842 | 0.908 | 0.579 | 0.515 | 0.494 | 0.36 | 0.5 | 0.326 | 0.819 | 0.808 | 0.974 | 0.751 | 0.59 | 1.09 | 1.13 | 0.868 | 1.12 | 0.749
4 | NCI-H2126 | 1.21 | 1.26 | 1.06 | 1.33 | 1.09 | 0.575 | 0.57 | 0.441 | 0.528 | 0.527 | 0.571 | 0.607 | 0.625 | 0.548 | 0.517 | 1.02 | 1.08 | 0.837 | 1.03 | 0.931
5 | NCI-H2170 | 0.952 | 1.05 | 0.947 | 1.03 | 0.947 | 0.443 | 0.449 | 0.403 | 0.408 | 0.373 | 0.581 | 0.631 | 0.612 | 0.505 | 0.575 | 1.01 | 1.02 | 0.88 | 0.885 | 0.807
6 | NCI-H2228 | 0.874 | 0.835 | 0.614 | 0.87 | 0.788 | 0.348 | 0.371 | 0.162 | 0.221 | 0.235 | 0.444 |  | 0.472 | 0.337 | 0.2 | 1.22 | 0.84 | 0.788 | 1.12 | 0.972
7 | NCI-H2342 | 1.02 | 1.11 | 0.886 | 0.896 | 0.729 | 0.597 | 0.584 | 0.514 | 0.614 | 0.482 | 0.257 | 0.322 | 0.351 | 0.325 | 0.321 | 1.06 | 1.09 | 0.907 | 1.03 | 0.882
8 | NCI-H2347 | 0.845 | 0.701 | 0.818 | 1.12 | 0.664 | 0.395 | 0.386 | 0.372 | 0.284 | 0.313 | 0.269 | 0.169 | 0.351 | 0.319 | 0.272 | 1.1 | 1.03 | 0.904 | 1.14 | 0.866
9 | NCI-H2405 | 1.11 | 1.06 | 0.952 | 1.01 | 0.956 | 0.451 | 0.37 | 0.322 | 0.355 | 0.35 | 0.182 | 0.228 | 0.228 | 0.205 | 0.209 | 1.06 | 0.985 | 0.886 | 1 | 0.956
